Laboratory results reported in patent US10213451B2, “Methods and compounds for modulating the secretion or expression of adhesion proteins or angiopoietins of cells” (PACIFIC ARROW LIMITED, priority 2004, dated 2019).
Converted amounts (≈) assume the structure as drawn. One block for each compound: values may come before it.

Experiments:
[1] = tested on: Leishmania Major (promastigotes); test: Cell growth of Leishmania parasites by MTT assay; assay type: cell-based; conditions: read-out: IC50, cytotoxic to Leishmania Major (promastigotes)
Procedure: Method: Leishmania parasites (Leishmania major: MRHO/SU/59/P/LV39) were grown in culture medium in a T75 flask at room temperature. Promastigotes of Leishmania major (approximately 40 million per ml) were used in the experiment. 1.2 ml cell culture was transferred to a well of the 24-wells plate. Saponin Y10 (0.2 ml in medium) with different concentrations (final 6.25-200 ug/ml) was added to culture and cells were grown for 1-5 days at room temperature. At the end of drug-treatment, 150 ul of MTT (5 mg/ml in PBS) was added to each well and incubated for 4 hours. Formazan formed in cells was dissolved with DMSO and the OD at 490 nm was determined by an ELISA reader.

(lung)H460 cells = test: MTT assay H460; assay type: cell-based; conditions: Homo sapiens, NCI-H460
Procedure: (§1) Cells. Human cancer cell lines were obtained from American Type Culture Collection: HTB-9 (bladder), HeLa-S3 (cervix), DU145 (prostate), H460 (lung), MCF-7 (breast), K562 (leukocytes), HCT116 (colon), HepG2 (liver), U2OS (bone), T98G (brain), SK-MEL-5 (Skin) and OVCAR-3 (ovary). The cells were grown in following culture media: HeLa-53, DU145, MCF-7, Hep-G2 and T98G are in MEN (Earle's salts); HTB-9, H460, K562 and OVCAR-3 in RPMI-1640; HCT-116 and U2OS in McCoy-5A. They are supplemented with 10% fetal calf serum, glutamine and antibiotics, and incubated in an incubator with 5% CO2 humidified at 37° C.
(§2) MTT Assay. The procedure for MTT assay followed the method described by Carmichael et al. (1987) with modifications. […] The formazan (product of the reduction of tetrazolium by viable cells) formed and was dissolved with DMSO and the O.D. at 490 nm, and was measured by an ELISA reader. The MTT level of the cells before drug-treatment was also measured (T0). The % cell-growth (% G) is calculated as: % G=(TD−T0/TC−T0)×100(1), where TC or TD represents O.D. readings of control or drug-treated cells. When T0>TD, then the cytotoxicity (LC) expressed as % of the control is calculated as: % LC=(TD−T0/T0)×100(2).

(Skin) SK-MELS = test: MTT assay SK-MEL-5; assay type: cell-based, human; conditions: Homo sapiens, SK-MEL-5, read-out: IC50
Procedure: as §1, §2

[2] = tested on: Fibronectin secretion from lung carcinoma cells (H460); test: Fibronectin secretion (Western blot), H460 cells; assay type: cell-based, human; conditions: Homo sapiens, NCI-H460, H460 cells, 10 ug/ml
[3] = tested on: Fibronectin secretion from ES2 cells; test: Fibronectin secretion (Western blot), ES2 cells; assay type: cell-based, human; conditions: for % inhibition of Fibronectin secretion: ES2 cells, 80 ug/ml
Procedure: Inhibition of Fibronectin secretion is physiological and the determination of its quantity is based on the following criteria: • 1. Fibronectin is secreted from viable cells. Only cell with over 85% viable cells after drug-treatment are employed in these experiments. The viable cells were determined by MTT assay. • 2. For comparison, the immuno-band intensity from each samples are normalized with cell mass. The cell mass was determined by the MTT assay and is assigned as a MTT unit for each cell sample.
Cells: ES2 cells were grew in T-25 flask with RPMI 1640 medium over night before drug-treatment. Drug-treatment: cells cultures were replaced with fresh RPMI medium with Xanifolia-Y (10 ug/ml final concentration) or DMSO (as control) at 0 hour. At 1, 2, 4, 8 and 24 hour, aliquot of culture medium was taken out for Fibronectin determination. Fibronectin was determined by Western blot with monoclonal antibody (SIGMA) specific to human Fibronectin only.
Drug-treatment: cells cultures were replaced with fresh RPMI medium containing Xanifolia-Y (10 ug/ml final concentration) or DMSO (as control) at 0 hour. At 4 hours (A) or 8 hour (B), culture medium was replaced with fresh culture medium without drug. At 2, 4, 8 and 24 hour, aliquot of culture medium was taken out for Fibronectin determination. Fibronectin (FN) was determined by Western blot with monoclonal antibody (SIGMA) specific only to human Fibronectin.
Drug-treatment: cells cultures were replaced with fresh RPMI medium containing Xanifolia-Y (10 ug/ml final concentration) or DMSO (as control) at 0 hour. At 2, and 18 hour, aliquot of culture medium was taken out for Fibronectin determination (Western blot method). Cell viability at 18 hours was determined by MTT assay. Cultures were replaced with RPMI medium with MTT and incubated for an hour. The formation of formazan was dissolved in DMSO and OD at 570 nm was measured.
Cells and Drug-treatment: same as previous experiments. After 7 or 24 hours, aliquot of culture medium was taken out for Fibronectin determination (Western blot method). Cell viability at 24 hours was determined by MTT assay.
Cells: ES2 cells were grew in RPMI 1640 medium over night before drug-treatment. Drug-treatment: cells cultures were replaced with fresh RPMI medium containing DMSO (as control) [D]; Xanifolia-Y (10 ug/ml) [Y]; or Paclitaxel 10 or 50 ng/ml [T10, ro T50]. After 24 hours, aliquot of culture medium was taken out for Fibronectin determination (Western blot method). Cell viability at 24 hours was determined by MTT assay.
The amount of Fibronectin secreted by cells into medium was determined by Western blot assay. The amount of Fibronectin secreted per cells basis was determined by dividing the Western-band intensity with the MTT unit.
Western Blot: Spent culture medium (0.6 ml) was mixed with SDS sample buffer (0.2 ml), boiled for 3 minutes before loading to SDS gel. Samples (60 ul/lane) were applied to a 6% SDS gel and electrophoresis was conducted with 100 volts for 2 hours. Protein was transferred to a nitrocellulose paper electrophoretically (30 min at 100 volts). The Western blot was incubated with the first antibody (mouse anti-FN, specific to human FN, SIGMA F0916) and second antibody (Anti-mouse IgG AP conjugated, Promega S3721). The immunobands were developed with BCIP/NBT color development system (Promega S3771).

[4] = tested on: Fibronectin secretion from brain glioblastoma T98G cells; test: Fibronectin secretion (Western blot), T98G cells; assay type: cell-based, human; conditions: Homo sapiens, T98G, 10 ug/ml
ES2(ovarian) cells = test: MTT assay ES2; assay type: cell-based, human; conditions: Homo sapiens, ES-2, ES2 cells; read-out: IC50
[5] = tested on: Fibronectin secretion from liver HepG2 cells; test: Fibronectin secretion (Western blot), HepG2 cells; assay type: cell-based, human
(Breast)MCF7 = test: MTT assay MCF7; assay type: cell-based, human; conditions: Homo sapiens, read-out: IC50
Procedure: as §1, §2

[6] = tested on: Fibronectin secretion from bladder carcinoma cells (HTB-9); test: Fibronectin secretion (Western blot), HTB-9 cells; assay type: cell-based, human; conditions: Homo sapiens, 10 ug/ml
(Liver) HepG2 = test: MTT assay HepG2; assay type: cell-based, human; conditions: Homo sapiens, read-out: IC50
Procedure: as §1, §2

(brain) T98G = test: MTT assay T98G; assay type: cell-based; conditions: Homo sapiens
Procedure: as §1, §2

[7] = tested on: (bladder)TB9 cells / HTB-9; test: MTT assay bladder cells; assay type: cell-based, human; conditions: Homo sapiens; (bladder)TB9 cells; read-out: IC50
Procedure: as §1
(§3) MTT Assay. The procedure for MTT assay followed the method described by Carmichael et al. (1987) with modifications. The cells were seeded into a 96-well plate at concentration of 10,000/well for HTB-9, HeLa, H460, HCT116, T98G and OVCAR-3), 15,000/well for DU145, MCF-7, HepG2 and U2OS), and 40,000/well for K562 for 24 hours before drug-treatment. The cells were then exposed to the drugs for 48 hours (72 hours for HepG2 and U2OS, and 96 hours for MCF-7). After the drug-treatment, MTT (0.5 mg/mL) was added to cultures and incubated for an hour. The formazan (product of the reduction of tetrazolium by viable cells) formed and was dissolved with DMSO and the O.D. at 490 nm, and was measured by an ELISA reader. The MTT level of the cells before drug-treatment was also measured (T0). The % cell-growth (% G) is calculated as: % G=(TD−T0/TC−T0)×100(1), where TC or TD represents O.D. readings of control or drug-treated cells. When T0>TD, then the cytotoxicity (LC) expressed as % of the control is calculated as: % LC=(TD−T0/T0)×100(2).

[8] = tested on: Fibronectin secretion from skin SK-Mel-5 cells; test: Fibronectin secretion (Western blot), SK-MEL-5 cells; assay type: cell-based, human; conditions: Homo sapiens, 10 ug/ml
(Prostate) DU145 = test: MTT assay DU145; assay type: cell-based, human; conditions: Homo sapiens, DU-145, read-out: IC50
Procedure: as §1, §2

tumor growth = test: MTT anticancer activity of Y, X and hydrolysis products (FIG. 4C); assay type: cell-based
Procedure: as §3
(A) Alkaline Hydrolysis of Xanifolia-Y: 20 mg of Xanifolia-Y was dissolved in 0.5 mL of 1M NaOH. The solution was incubated in an 80° C. water bath for 4 hours. It was cooled to room temperature before being neutralized with 0.5 mL 1 N HCl (adjusted pH to about 3). The mixture was extracted with 2 mL 1-butanol 3 times. The butanol fractions were collected and lyophilized. The hydrolyzed saponin was further purified with HPLC in a C-18 column eluted with 25% acetonitrile.
(B) Acid Hydrolysis of Xanifolia-Y: 15 mg Xanifolia-Y was dissolved in 1 mL of Methanol. 1 mL of 2N HCl was then added. The mixture was refluxed in an 80° C. water bath for 5 hours. The solution was then neutralized by adding 2 mL of 1N NaOH (to a final pH 3-4). The aglycone was then extracted with ethylacetate 3 mL×3. The extracts were collected and pooled. Further isolation of aglycone (sugar-removed Xanifolia-Y) was achieved by HPLC with isocratic elution of 80% acetonitrile.

human red blood cells = test: Hemolytic activity; assay type: cell-based; conditions: FIG. 3D
Procedure: Methods: • Human whole blood was obtained from the Houston Gulf Coast Blood Center. • Red blood cells were isolated by the following method: Human blood (in EDTA) was diluted 1:1 with PBS, underlay with 4 mL of Histopaque-1077 (SIGMA) and was centrifuged at 400 g for 30 min. • Red blood cells (RBC) were collected and washed three times with PBS. • 10% suspensions of RBC were prepared with PBS before use. • 50 μL of RBC suspension was added to 2 mL of saponins with different concentration. • The suspension was mixed by vortexing then left to sit at room temperature for 60 minutes. • The suspension was centrifuged at 3000 rpm for 5 min. Absorbance of the supernatant was measured at 540 nm.

K562 cells membrane = test: EM study of membrane structure; assay type: cell-based, human; conditions: 20 uM, 60 min
Excerpt: Xanifolia-Y has a potent hemolytic activity in red blood cells (FIG. 27). To study the effect of Xanifolia-Y on membrane structure, the morphology of cell membrane treated with Xanifolia-Y was examined with EM. […] Solvent DMSO and AKOH-Y (a derivative of Xanifolia-Y without the angeloyl group and it has no activity) served as controls. Cells were negative stained with 1% UAc and subsequently examined with EM.

SMILES: C/C=C(/C)C(=O)O[C@H]1[C@H](OC(=O)/C(C)=C\C)[C@@]2(CO)C(CC1(C)C)C1=CCC3[C@@]4(C)CC[C@H](O[C@@H]5OC(C(=O)O)[C@@H](O)[C@@H](O[C@@H]6O[C@@H](CO)[C@@H](O)C6O)C5O[C@@H]5OC(CO)[C@H](O)[C@@H](O)C5O)C(C)(C)C4CC[C@@]3(C)[C@]1(C)C[C@H]2O (stereo partly drawn) [Xanifolia Y10, 3-O-[β-galactopyranosyl (1→2)]-α-arabinofuranosyl (1→3)-β-glucuronopyranosyl-21, 22-O-diangeloyl-3β, 16α, 21β, 22α, 28-pentahydroxyolean-12-ene]
IC50 [1]: ~15 µg/mL (≈ 13.3 µM)

IC50 ((lung)H460 cells): 6.5 µg/mL (≈ 9.69 µM) | IC50 ((Skin) SK-MELS): 22 µg/mL (≈ 32.8 µM) | IC50 ((Breast)MCF7): 13 µg/mL (≈ 19.4 µM) | IC50 ((Liver) HepG2): 4 µg/mL (≈ 5.96 µM) | IC50 ((Prostate) DU145): 6.4 µg/mL (≈ 9.54 µM)
SMILES: C/C=C(/C)C(=O)O[C@H]1[C@H](OC(=O)/C(C)=C\C)[C@@]23C(CC1(C)C)[C@]1(CCC4[C@@]5(C)CC[C@H](O)C(C)(C)C5CC[C@@]4(C)[C@]1(C)C[C@H]2O)O[C@@H]3O (stereo partly drawn) [ACH-Mb5]
inhibition at 10 µg/mL [2]: 22% | inhibition at 10 µg/mL ([3]; Homo sapiens, ES-2, ES2 cells, 10 ug/ml): 30% | inhibition at 10 µg/mL [4]: 35% | IC50 (ES2(ovarian) cells): 8 µg/mL (≈ 11.9 µM) | inhibition at 10 µg/mL ([5]; Homo sapiens, HepG2, HepG2 cells, 10 ug/ml): 25% | inhibition at 10 µg/mL [6]: 30% | IC50 ((brain) T98G): 6 µg/mL (≈ 8.94 µM) | IC50 [7]: 5.7 µg/mL (≈ 8.5 µM) | inhibition at 10 µg/mL [8]: 20%

SMILES: CC1(C)CC2C3=CCC4[C@@]5(C)CC[C@H](O[C@@H]6OC(C(=O)O)[C@@H](O)[C@@H](O[C@@H]7O[C@@H](CO)[C@@H](O)C7O)C6O[C@@H]6OC(CO)[C@H](O)[C@@H](O)C6O)C(C)(C)C5CC[C@@]4(C)[C@]3(C)[C@@H](O)[C@@H](O)[C@@]2(CO)[C@@H](O)[C@@H]1O (stereo partly drawn) [AKOH-Y]
anticancer activity after alkaline hydrolysis (tumor growth): lost anticancer activity | MTT activities of hydrolysed products of compound Y (tumor growth; FIG. 4C, 4D): lost MTT activities | anticancer activity (tumor growth; FIG. 4C, even at 120 μg/ml): completely abolishes its anticancer activity | anticancer activity (tumor growth; even at 120 ug/ml): completely abolishes its anticancer activity | hemolytic activity of hydrolysed products of compound Y (human red blood cells): destroyed the hemolytic activity | % inhibition of Fibronectin secretion [3]: no effect | % inhibition of Fibronectin secretion ([3]; listed as AKOH): no effect | inhibition effect on Fibronectin secretion ([5]; HepG2 cells, 80 ug/ml): Minimum or No effect | membrane morphology (EM): patches of pits (K562 cells membrane): not
